Columns and labels:
[1] = tested on: Jurkat cells; test: Measuring metabolically active cells using quinone coelenterazine derivatives; assay type: cell-based; details: two-fold serial dilutions of Jurkat cells; stocks 50 μM (40) and 100 μM (50); 30 minutes at 37° C.; Oplophorus luciferase detection reagent
From the text: Viable cells maintain a metabolically active state that is inevitably lost when cells are damaged. Upon entering the living cells, the quinone coelenterazine is reduced to a coelenterazine derivative that is a substrate for a coelenterazine-utilizing luciferase, e.g., Oplophorus or Renilla luciferase. Conversion of the quinone coelenterazine is proportional to the number of metabolically active cells, and therefore can be measured quantitatively by monitoring light produced by luciferase reaction.
Two-fold serial dilutions of Jurkat cells were prepared in PBS, and 50 μl per well transferred to wells in 96-well plates. Compounds 40 and 50 were diluted in PBS to make 50 μM and 100 μM stocks, respectively. 10 μl of prepared compound stocks were added to the cells, and the cells were placed into 37° C., 5% CO2 incubator. Following 30 minutes incubation, the cells were removed from incubator, cooled at room temperature for 10 minutes, and 50 μl of Oplophorus luciferase detection reagent added directly to the wells. The samples were mixed, incubated at room temperature for 20 minutes, and luminescence measured.

[2] = target: T1, caspase-3 (Homo sapiens, UniProt P42574); test: Caspase-3 detection with z-DEVD-coelenterazine-h and Renilla luciferase; assay type: biochemical; details: 25 μM substrate, 25 U/ml caspase-3, 3.25 ug/ml Renilla luciferase, measured over 110 minutes
T1 sequence (P42574 29-175 limits assumed): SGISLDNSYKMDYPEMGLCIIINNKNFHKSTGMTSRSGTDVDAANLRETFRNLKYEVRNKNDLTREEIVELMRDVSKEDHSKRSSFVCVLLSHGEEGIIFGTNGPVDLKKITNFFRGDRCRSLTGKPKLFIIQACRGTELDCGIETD
T1 sequence (P42574 176-277 limits assumed): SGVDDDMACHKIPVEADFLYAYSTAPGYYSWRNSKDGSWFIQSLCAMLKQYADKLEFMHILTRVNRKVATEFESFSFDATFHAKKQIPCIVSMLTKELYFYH
Method: Compound 21 (50 μM) was combined with Renilla luciferase (6.5 μg/ml, Renilla-GST fusion) in 50 mM HEPES buffer pH 7.2, 2 mM DTT, and 0.5% CHAPS and incubated for 20 minutes to remove any free coelenterazine derivatives that may be substrates for Renilla luciferase. Purified caspase-3 enzyme (50 U/ml) or buffer control was added in a 1:1 volume ratio for final concentrations of 25 μM Z-DEVD-coelenterazine h derivative substrate, 25 U/ml caspase-3 and 3.25 ug/ml luciferase. Luminescence was measured over 110 minutes.

[3] = target: T1, caspase-3; test: Caspase 3 assay using Oplophorus luciferase variant 9B8 opt; assay type: biochemical; details: 23.5 μM substrate, OgLuc 9B8 opt lysate, with caspase-3
Method: (§1) An Oplophorus luciferase (OgLuc) variant, 9B8 opt, was used in a bioluminescent assay using a pro-coelenterazine substrate comprising the DEVD caspase-3 cleavage sequence. Purified caspase-3 enzyme was mixed with an E. coli lysate sample expressing the variant 9B8 opt, which was purified using the HALOLINK™ Resin (Promega Corp.) according to manufacturer's instructions, and diluted 10-fold in a buffer containing 100 mM MES pH 6.0, 1 mM CDTA, 150 mM KCl, 35 mM thiourea, 2 mM DTT, 0.25% TERGITOL® NP-9 (v/v), 0.025% MAZU®, with or without 23.5 μM z-DEVD-coelenterazine-h in 100 mM HEPES pH 7.5. The caspase-3 enzyme was incubated with the lysate sample for 3 hrs at room temperature, and luminescence detected on a Turner MODULUS™ luminometer at various time points. A sample containing only bacterial lysate and a sample containing only caspase-3 were used as controls. Three replicates were used.

[4] = tested on: caspase-3; test: as above; assay type: biochemical; details: 23.5 μM substrate, OgLuc 9B8 opt lysate, no caspase-3
Method: as §1

| Compound | relationship between luminescence and cell number [1] | increase in luminescence relative to control samples that did not contain caspase [2] | luminescence, + caspase ([3]; 5.0 min) | luminescence, + caspase ([3]; 15.3 min) | luminescence, + caspase ([3]; 29.9 min) | luminescence, + caspase ([3]; 60.9 min) | luminescence, + caspase ([3]; 190.3 min) | luminescence, − caspase ([4]; 5.0 min) | luminescence, − caspase ([4]; 15.3 min) | luminescence, − caspase ([4]; 29.9 min) | luminescence, − caspase ([4]; 60.9 min) | luminescence, − caspase ([4]; 190.3 min) |
| --- | --- | --- | --- | --- | --- | --- | --- | --- | --- | --- | --- | --- |
| CC1=C(C)C(=O)C(C(C)(C)CC(=O)N(C)CCN(C)C(=O)Oc2c(Cc3ccco3)nc3c(Cc4ccccc4)nc(-c4ccccc4)cn23)=C(C)C1=O [Compound 40] | linear correlation between cell number and luminescence | – | – | – | – | – | – | – | – | – | – | – |
| CC1=C(C)C(=O)C(C(C)(C)CC(=O)N(C)CCN(C)C(=O)Oc2c(Cc3ccccc3)nc3c(Cc4ccccc4)nc(-c4ccccc4)cn23)=C(C)C1=O [Compound 50] | linear correlation between cell number and luminescence | – | – | – | – | – | – | – | – | – | – | – |
| z-DEVD-coelenterazine-h [Compound 21] | – | one hundred-fold increase | 25,411 RLU | 36,906 RLU | 41,854 RLU | 43,370 RLU | 42,448 RLU | 26,023 RLU | 7,707 RLU | 4,013 RLU | 2,305 RLU | 1,155 RLU |

Reference: patent US9487520B2, “Coelenterazine derivatives and methods of using same” (PROMEGA CORPORATION, priority 2010, dated 2016)
